Laboratory results as given in US6825001B2, “DNA molecules and protein displaying improved triazine compound degrading ability” (Regents of the University of Minnesota, priority 1997, dated 2004).
Entries after “also recorded” stand apart in the source; their conditions may differ.

Assays:
[1] = test system: Pseudomonas species strain ADP; experiment: effect of ammonium chloride on atrazine clearing on solid media, Pseudomonas; assay type: cell-based; conditions: solid media with 500 ppm atrazine, 2 weeks, 28° C. or 37° C.
Excerpt: (§1) Therefore, it was not necessary to use media free of exogenous ammonia in the screening assays.

[2] = test system: E. coli DH5α (pMD1 or pMD2); experiment: effect of ammonium chloride on atrazine degradation, E. coli clones; assay type: cell-based
Excerpt: as §1

[3] = atrazine-degrading activity of AtzA homologs compared with wild type; conditions: compared with wild-type AtzA or parent homolog
Experimental: Serial dilutions of the transformation reaction were plated onto LB plates containing 50 μg/ml ampicillin, the remainder of the transformation was stored in 25% glycerol and frozen at −80° C.
Environ. Microbiol., 61, 1451-1457 (1995), at a final concentration of 500 μg/ml to produce an opaque suspension of small particles in the clear agar. […] Positive colonies that most rapidly formed the largest clear zones were selected initially for further analysis. The (approximately) 40 best colonies were picked, pooled, grown in the presence of 50 μg/ml ampicillin and plasmid prepared from them.
Enzyme Kinetics. […] The reactions were stopped by boiling the reaction tubes at specific times, the addition of 500 μl acetonitrile and rapid freezing at −80° C. Thawed samples were centrifuged at 14,000 rpm for 10 minutes, the supernatants were filtered through a […] filter, and placed into crimp-seal HPLC vials. HPLC analysis was done as described above.

[4] = TERBUTHYLAZINE-degrading activity of AtzA homologs; assay type: biochemical; conditions: compared with wild-type enzyme
Experimental: TERBUTHYLAZINE was incorporated in solid LB medium at a final concentration of about 400-500 μg/ml to produce an opaque suspension of sample particles in the clear agar. […] HPLC analysis was performed with a Hewlett Packard HP 1090 Liquid Chromatograph system equipped with a photodiode array detector and interfaced to an HP 79994A Chemstation. TERBUTHYLAZINE and its metabolites were resolved by using an analytical C^18 reverse-phase Nova-Pak HPLC column (4 μm-diameter spherical packing, 150 by 3.9 mm; Waters Chromatography, Milford, Mass.) and an acetonitrile (ACN) gradient, in water, at a flow rate of 1.0 ml min^−1. Linear gradients of 0 to 6 min, 10 to 25% ACN; 6 to 21 min, 25 to 65% ACN; 21 to 23 min, 65 to 100% ACN; and 23 to 25 min, 100% ACN were used. Spectral data of the column eluent were acquired between 200 and 400 nm (12-nm bandwidth per channel) at a sampling frequency of 640 ms. Spectra were referenced against a signal of 500 nm.
Sample 1 is a control sample without enzyme. […] Sample 3 employed the T7 homolog (SEQ ID NO:6) and Sample 4 employed the A7 homolog (SEQ ID NO:5). Results were determined by HPLC as described above. FIG. 8(a) provides the percentage of TERBUTHYLAZINE remaining after a 15 minute exposure to homologs A7, A11, and T7. Samples 1-10 refer to the effect of homolog activity in the presence of 50 uM of: Manganese (1); Mangnesium (2), EDTA (3); cobalt (4); zinc (5); iron (6); copper (7); nickel (8); no metal (9); or no eznyme (10). FIG. 8(b) provides the relative amount of hydroxyterbuthylazine as a measure of TERBUTHYLAZINE degradation for homologs A7 (solid bar), A11 (hatched bar), or T7 (open bar) in the presence or absence of additives 1-10 (supra).

## Cl.N [ammonium chloride]
[1]
  ammonium chloride concentration sufficient to inhibit visible clearing: 0.6 to 1.2 mM
[2]; E. coli clones vs Pseudomonas strain ADP
  ammonium chloride tolerance relative to wild type: 40-80 fold
[2]; atzA fragments expressed in E. coli
  effect of inorganic nitrogen source on atrazine degradation (in words): unaffected
[2]; solid media with atrazine
  ammonium chloride concentration at which atrazine degradation was still observed: ≤ 48 mM

B1: A7: AtzA homolog, gene SEQ ID NO:3, protein SEQ ID NO:5 (protein)
chain: ASMVTLTPLFSFSLLNCTRKASRSVMSASSWLVTCGMTTQLRCRFFDGIISALRRVTHYWRHIMQTLSIQHGTLVTMDQYRRVLGDSWVHVQDGRIVALGVHAESVPPPADRVIDARGKVVLPGFINAHTHVNQILLRGGPSHGRQFYDWLFNVVYPGQKAMRPEDVAVAVRLYCAEAVRSGITTINENADSAIYPGNIEAAMAVYGEVGVRVVYARMFFDRMDGRIQGYVDALKARSPQVELCSIMEGTAVAKDRITALSDQYHGTAGGRISVWPAPATTTAVTVEGMRWAQAFARDRAVMWTLHMAESDHDERIHGMSPAEYMECYGLLDERLQVAHCVYFDRKDVRLLHRHNVKVASQVVSNAYLGSGVAPVPEMVERGMAVGIGTDNGNSNDSVNMIGDMKFMAHIHRAVHRDADVLTPEKILEMATIDGARSLGMDHEIGSIETGKRADLILLDLRHPQTTPHHHLAATIVFQAYGNEVDTVLIDGNVVMENRRLSFLPPERELAFLEEAQSRATAILQRANMVANPAWRSLEMTPLLHPPPLEEIAAILARLGLGGGHDLDGYRIAMNAALPSFARVESLVGEGRLRAPASRRSE
[3]
  atrazine degradation activity (in words): enhanced atrazine degradation activity
[4]
  TERBUTHYLAZINE degradation activity (in words): better than the wild-type enzyme; also recorded: enhanced TERBUTHYLAZINE degradation activity
